# Tested on: Escherichia coli
# Test: Antibacterial activity against Escherichia coli ATCC 25922 assessed as inhibition of bacterial growth by broth microdilution method
# Assay type: functional
# Conditions: not given
row,SMILES,MIC [µg/mL]
1,O=C1/C(=C/c2ccc(Br)cc2)COC/C1=C\c1ccc(Br)cc1,> 64
2,Cc1cccc(/C=C2\COC/C(=C\c3cccc(C)c3)C2=O)c1,> 64
3,Cc1ccccc1/C=C1\COC/C(=C\c2ccccc2C)C1=O,> 64
4,COc1cc(/C=C2\COC/C(=C\c3cc(OC)c(OC)c(OC)c3)C2=O)cc(OC)c1OC,> 64
5,COc1ccccc1/C=C1\CSC/C(=C\c2ccccc2OC)C1=O,> 64

# Tested on: Pseudomonas aeruginosa
# Test: Antibacterial activity against Pseudomonas aeruginosa ATCC 27853 assessed as inhibition of bacterial growth by broth microdilution method
# Assay type: functional
# Conditions: not given
row,SMILES,MIC [µg/mL]
1,O=C1/C(=C/c2ccc(Br)cc2)COC/C1=C\c1ccc(Br)cc1,> 64
2,Cc1cccc(/C=C2\COC/C(=C\c3cccc(C)c3)C2=O)c1,> 64
3,Cc1ccccc1/C=C1\COC/C(=C\c2ccccc2C)C1=O,> 64
4,COc1cc(/C=C2\COC/C(=C\c3cc(OC)c(OC)c(OC)c3)C2=O)cc(OC)c1OC,> 64
5,COc1ccccc1/C=C1\CSC/C(=C\c2ccccc2OC)C1=O,> 64

# Tested on: Salmonella typhimurium
# Test: Antibacterial activity against Salmonella enterica serovar typhimurium SL1344 (SE03) assessed as inhibition of bacterial growth by broth microdilution method
# Assay type: functional, Salmonella enterica subsp. enterica serovar Typhimurium
# Conditions: not given
row,SMILES,MIC [µg/mL]
1,O=C1/C(=C/c2ccc(Br)cc2)COC/C1=C\c1ccc(Br)cc1,> 64
2,Cc1cccc(/C=C2\COC/C(=C\c3cccc(C)c3)C2=O)c1,> 64
3,Cc1ccccc1/C=C1\COC/C(=C\c2ccccc2C)C1=O,> 64
4,COc1cc(/C=C2\COC/C(=C\c3cc(OC)c(OC)c(OC)c3)C2=O)cc(OC)c1OC,> 64
5,COc1ccccc1/C=C1\CSC/C(=C\c2ccccc2OC)C1=O,> 64

# Tested on: Staphylococcus aureus
# Test: Antibacterial activity against Staphylococcus aureus ATCC 25923 assessed as inhibition of bacterial growth by broth microdilution method
# Assay type: functional
# Conditions: not given
row,SMILES,MIC [µg/mL]
1,O=C1/C(=C/c2ccc(Br)cc2)COC/C1=C\c1ccc(Br)cc1,> 64
2,Cc1cccc(/C=C2\COC/C(=C\c3cccc(C)c3)C2=O)c1,> 64
3,Cc1ccccc1/C=C1\COC/C(=C\c2ccccc2C)C1=O,> 64
4,COc1cc(/C=C2\COC/C(=C\c3cc(OC)c(OC)c(OC)c3)C2=O)cc(OC)c1OC,> 64
5,COc1ccccc1/C=C1\CSC/C(=C\c2ccccc2OC)C1=O,> 64

# Tested on: Enterococcus faecalis
# Test: Antibacterial activity against Enterococcus faecalis ATCC 29212 assessed as inhibition of bacterial growth by broth microdilution method
# Assay type: functional
# Conditions: not given
row,SMILES,MIC [µg/mL]
1,O=C1/C(=C/c2ccc(Br)cc2)COC/C1=C\c1ccc(Br)cc1,> 64
2,Cc1cccc(/C=C2\COC/C(=C\c3cccc(C)c3)C2=O)c1,> 64
3,Cc1ccccc1/C=C1\COC/C(=C\c2ccccc2C)C1=O,> 64
4,COc1cc(/C=C2\COC/C(=C\c3cc(OC)c(OC)c(OC)c3)C2=O)cc(OC)c1OC,> 64
5,COc1ccccc1/C=C1\CSC/C(=C\c2ccccc2OC)C1=O,> 64

# Tested on: Staphylococcus aureus
# Test: Antibacterial activity against methicillin and ofloxacin-resistant Staphylococcus aureus 272123 assessed as inhibition of bacterial growth by broth microdilution method
# Assay type: functional
# Conditions: not given
row,SMILES,MIC [µg/mL]
1,O=C1/C(=C/c2ccc(Br)cc2)COC/C1=C\c1ccc(Br)cc1,> 64
2,Cc1cccc(/C=C2\COC/C(=C\c3cccc(C)c3)C2=O)c1,> 64
3,Cc1ccccc1/C=C1\COC/C(=C\c2ccccc2C)C1=O,> 64
4,COc1cc(/C=C2\COC/C(=C\c3cc(OC)c(OC)c(OC)c3)C2=O)cc(OC)c1OC,> 64
5,COc1ccccc1/C=C1\CSC/C(=C\c2ccccc2OC)C1=O,> 64

# Tested on: Candida albicans
# Test: Antifungal activity against Candidia albicans ATCC 10231 assessed as inhibition of fungal growth by broth microdilution method
# Assay type: functional
# Conditions: not given
row,SMILES,MIC [µg/mL]
1,O=C1/C(=C/c2ccc(Br)cc2)COC/C1=C\c1ccc(Br)cc1,> 128
2,Cc1cccc(/C=C2\COC/C(=C\c3cccc(C)c3)C2=O)c1,> 128
3,Cc1ccccc1/C=C1\COC/C(=C\c2ccccc2C)C1=O,> 128
4,COc1cc(/C=C2\COC/C(=C\c3cc(OC)c(OC)c(OC)c3)C2=O)cc(OC)c1OC,> 128
5,COc1ccccc1/C=C1\CSC/C(=C\c2ccccc2OC)C1=O,> 128

# Tested on: Aspergillus fumigatus
# Test: Antifungal activity against Aspergillus fumigatus ATCC 204305 assessed as inhibition of fungal growth by broth microdilution method
# Assay type: functional
# Conditions: not given
row,SMILES,MIC [µg/mL]
1,O=C1/C(=C/c2ccc(Br)cc2)COC/C1=C\c1ccc(Br)cc1,> 128
2,Cc1cccc(/C=C2\COC/C(=C\c3cccc(C)c3)C2=O)c1,> 128
3,Cc1ccccc1/C=C1\COC/C(=C\c2ccccc2C)C1=O,> 128
4,COc1cc(/C=C2\COC/C(=C\c3cc(OC)c(OC)c(OC)c3)C2=O)cc(OC)c1OC,> 128
5,COc1ccccc1/C=C1\CSC/C(=C\c2ccccc2OC)C1=O,> 128

# Tested on: Trichophyton rubrum
# Test: Antifungal activity against Trichophyton rubrum FF5 assessed as inhibition of fungal growth by broth microdilution method
# Assay type: functional
# Conditions: not given
row,SMILES,MIC [µg/mL]
1,O=C1/C(=C/c2ccc(Br)cc2)COC/C1=C\c1ccc(Br)cc1,> 128
2,Cc1cccc(/C=C2\COC/C(=C\c3cccc(C)c3)C2=O)c1,> 128
3,Cc1ccccc1/C=C1\COC/C(=C\c2ccccc2C)C1=O,> 128
4,COc1cc(/C=C2\COC/C(=C\c3cc(OC)c(OC)c(OC)c3)C2=O)cc(OC)c1OC,> 128
5,COc1ccccc1/C=C1\CSC/C(=C\c2ccccc2OC)C1=O,> 128

# Tested on: Escherichia coli
# Test: Antimicrobial adjuvant activity against ESBL-producing Escherichia coli SA/2 assessed as potentiation of cefotaxime-induced antibacterial activity by measuring fold reduction in cefotaxime MIC at 64 ug/ml by broth microdilution method
# Assay type: functional
# Conditions: dose 64 µg/ml
row,SMILES,fold change (FC)
1,O=C1/C(=C/c2ccc(Br)cc2)COC/C1=C\c1ccc(Br)cc1,8
2,Cc1cccc(/C=C2\COC/C(=C\c3cccc(C)c3)C2=O)c1,2
3,COc1cc(/C=C2\COC/C(=C\c3cc(OC)c(OC)c(OC)c3)C2=O)cc(OC)c1OC,2

# Tested on: Enterococcus faecalis
# Test: Antimicrobial adjuvant activity against Enterococcus faecalis B3/101 assessed as potentiation of vancomycin-induced antibacterial activity by measuring fold reduction in vancomycin MIC at 64 ug/ml by broth microdilution method
# Assay type: functional
# Conditions: dose 64 µg/ml
row,SMILES,fold change (FC)
1,Cc1cccc(/C=C2\COC/C(=C\c3cccc(C)c3)C2=O)c1,2
2,Cc1ccccc1/C=C1\COC/C(=C\c2ccccc2C)C1=O,2
3,COc1ccccc1/C=C1\CSC/C(=C\c2ccccc2OC)C1=O,4

# Tested on: Salmonella enterica subsp. enterica serovar Typhimurium
# Test: Inhibition of Multidrug resistance efflux pump in Salmonella enterica serovar typhimurium SL1344 (SE03) assessed as relative fluorescence index using ethidium bromide as substrate at 50 uM by fluorescence based analysis
# Conditions: not given
row,SMILES,RFU
1,O=C1/C(=C/c2ccc(Br)cc2)COC/C1=C\c1ccc(Br)cc1,0.06
2,Cc1cccc(/C=C2\COC/C(=C\c3cccc(C)c3)C2=O)c1,-0.12
3,Cc1ccccc1/C=C1\COC/C(=C\c2ccccc2C)C1=O,-0.08
4,COc1cc(/C=C2\COC/C(=C\c3cc(OC)c(OC)c(OC)c3)C2=O)cc(OC)c1OC,-0.05
5,COc1ccccc1/C=C1\CSC/C(=C\c2ccccc2OC)C1=O,0.01

# Tested on: not listed separately
# Test: Inhibition of Multidrug resistance efflux pump in Staphylococcus aureus 272123 assessed as relative fluorescence index using ethidium bromide as substrate at 50 uM by fluorescence based analysis
# Conditions: not given
row,SMILES,RFU
1,O=C1/C(=C/c2ccc(Br)cc2)COC/C1=C\c1ccc(Br)cc1,0.53
2,Cc1cccc(/C=C2\COC/C(=C\c3cccc(C)c3)C2=O)c1,0.11
3,Cc1ccccc1/C=C1\COC/C(=C\c2ccccc2C)C1=O,-0.23
4,COc1cc(/C=C2\COC/C(=C\c3cc(OC)c(OC)c(OC)c3)C2=O)cc(OC)c1OC,0.02
5,COc1ccccc1/C=C1\CSC/C(=C\c2ccccc2OC)C1=O,0.01

# Tested on: Staphylococcus aureus
# Test: Inhibition of biofilm formation in Staphylococcus aureus ATCC 25923 at 100 uM incubated for 48 hrs by crystal violet staining based analysis
# Assay type: functional
# Conditions: not given
row,SMILES,inhibition at 100 µM [%]
1,O=C1/C(=C/c2ccc(Br)cc2)COC/C1=C\c1ccc(Br)cc1,0

# Tested on: Staphylococcus aureus
# Test: Inhibition of biofilm formation in Staphylococcus aureus 272123 at 100 uM incubated for 48 hrs by crystal violet staining based analysis
# Assay type: functional
# Conditions: not given
row,SMILES,inhibition at 100 µM [%]
1,O=C1/C(=C/c2ccc(Br)cc2)COC/C1=C\c1ccc(Br)cc1,51.2

# Tested on: not listed separately
# Test: Inhibition of quorum sensing system in Chromobacterium violaceum wild type 85 assessed as reduction in pigment production incubated for 24 to 48 hrs
# Conditions: time 24-48 hrs
row,SMILES,Activity [mm]
1,O=C1/C(=C/c2ccc(Br)cc2)COC/C1=C\c1ccc(Br)cc1,0

# Tested on: Serratia marcescens
# Test: Inhibition of quorum sensing system in Serratia marcescens AS-1 assessed as reduction in pigment production incubated for 24 to 48 hrs
# Conditions: time 24-48 hrs
row,SMILES,Activity [mm]
1,O=C1/C(=C/c2ccc(Br)cc2)COC/C1=C\c1ccc(Br)cc1,0

# Tested on: not listed separately
# Test: Inhibition of quorum sensing system in Chromobacterium violaceum CV026 assessed as reduction in pigment production co-cultured with Sphingomonas paucimobilis Ezf 10-17 for 24 to 48 hrs
# Conditions: time 24-48 hrs
row,SMILES,Activity [mm]
1,O=C1/C(=C/c2ccc(Br)cc2)COC/C1=C\c1ccc(Br)cc1,0

# Source: ChEMBL document CHEMBL5143672, “New diarylpentanoids and chalcones as potential antimicrobial adjuvants” (2022)
